Test results published in article PMC2570929 (Emerging Infectious Diseases, 2008).
Entries after “also recorded” stand apart in the source; their conditions may differ. Like-named read-outs stand apart in the source and are kept apart here.

Key:
in vitro = conditions: human
[1] = test system: poliovirus Sabin strain 1 (PV1); test: microbe, parasite or virus in culture; assay type: cell-based; conditions: for EC50: Enterovirus C, HeLa, 72 h, read-out: EC50 PV1
[2] = test system: poliovirus Sabin strain 3 (PV3); test: microbe, parasite or virus in culture; assay type: cell-based; conditions: Enterovirus C, HeLa, 72 h, read-out: EC50 PV3
[3] = test system: poliovirus Sabin strain 2 (PV2); test: microbe, parasite or virus in culture; assay type: cell-based; conditions: Enterovirus C, HeLa, 72 h, read-out: EC50 PV2
[4] = test system: poliovirus Sabin strains 1, 2, and 3; test: microbe, parasite or virus in culture; assay type: cell-based; conditions: for EC50: Enterovirus C, read-out: EC50
[5] = in vivo; cited from earlier work
[6] = cited from earlier work
PV = conditions: in vivo; cited from earlier work
poliovirus 1 Sabin = assay type: cell-based

For `C[C@@]1(O)[C@H](O)[C@@H](CO)O[C@H]1n1cnc2c(N)ncnc21` [2'-C-methyladenosine, 2′-C-methyladenosine], which CC50 (in vitro) is on record?
Its CC50 is 84 µM.

And the EC50 [1]?
Its EC50 is 5.5 µM.

And the EC50 [2]?
Its EC50 is 5.4 ± 0.4 µM.

And the EC50 [3]?
The EC50 was 5.6 ± 0.1 µM.

What about the EC50 [4] of the same compound?
The EC50 was about 5 µM.

Which CC50 (in vitro) does the source give for `C[C@@]1(O)[C@H](O)[C@@H](CO)O[C@H]1n1ccc(N)nc1=O` [2'-C-methylcytidine, 2′-C-methylcytidine] here?
The CC50 was over 100 µM.

And the EC50 [1]?
The EC50 was 15 ± 18 µM.

And the EC50 [2]?
Its EC50 is 3.9 ± 2.3 µM.

And the EC50 [3]?
The EC50 was 29 ± 27 µM.

And the EC50 [4]?
Its EC50 is 3.9 to 29 µM.

For `[N-]=[N+]=N[C@]1(CO)O[C@@H](n2ccc(N)nc2=O)[C@H](O)[C@@H]1O` [4’-azidocytidine, 4′-azidocytidine], which CC50 (in vitro) is on record?
Its CC50 is over 100 µM.

What about the EC50 [1] of the same compound?
Its EC50 is over 100 µM.

And the EC50 [2]?
Its EC50 is over 100 µM.

What about the EC50 [3] of the same compound?
The EC50 was over 100 µM.

What about the “anti-PV activity” value [4] of the same compound?
Its value is “inactive; also recorded: devoid of anti-PV activity”.

Which CC50 (in vitro) does the source give for `C#CCC(C(=O)NC(C=CC(=O)OCC)CC1CCNC1=O)n1cccc(NC(=O)c2cc(C)on2)c1=O` (stereo not shown) [Compound 1] here?
Its CC50 is over 100 µM.

And the oral bioavailability [5]?
Its oral bioavailability is “excellent”.

What about the EC50 [1] of the same compound?
Its EC50 is 0.26 ± 0.24 µM.

And the EC50 [4]?
The EC50 was under 1 µM.

And the “cytotoxicity” value (HeLa cells (ATCC CCL-2))?
The value was “without any signs of cytotoxicity”.

With `CC(C)S(=O)(=O)n1c(N)nc2ccc(/C(=N/O)c3ccccc3)cc21` [Enviroxime] as the compound, how does the activity in vivo [6] read?
The activity in vivo was “weak to moderate”.

What about the toxicity in vivo [6] of the same compound?
Its toxicity in vivo is “toxicity”.

What about the CC50 (in vitro) of the same compound?
Its CC50 is 58 ± 6 µM.

What about the EC50 [1] of the same compound?
Its EC50 is 0.2 ± 0.25 µM.

And the EC50 [2]?
The EC50 was 0.035 ± 0.029 µM.

What about the EC50 [3] of the same compound?
Its EC50 is 0.056 ± 0.02 µM.

And the EC50 [4]?
The EC50 was 0.035 to 0.2 µM.

What does the source list for `OC(c1ccccc1)c1nc2ccccc2[nH]1` (stereo not drawn) [HBB, 2-(α-hydroxybenzyl)-benzimidazole]?
CC50 (in vitro): > 400 µM; EC50 [1]: 300 ± 68 µM; EC50 [2]: 295 ± 88 µM; EC50 [3]: 225 ± 128 µM; EC50 [4]: 200 to 300 µM

Which CC50 (in vitro) does the source give for `N#Cc1cc([N+](=O)[O-])ccc1Oc1ccc(Cl)c(Cl)c1` [MDL-860, 2-(3,4-dichlorophenoxy)-5-nitrobenzonitrile] here?
Its CC50 is over 100 µM.

And the EC50 [1]?
Its EC50 is 6 ± 1.6 µM.

What about the EC50 [2] of the same compound?
Its EC50 is 2.2 ± 1.5 µM.

What about the EC50 [3] of the same compound?
Its EC50 is 3.6 ± 2.2 µM.

Which results are given for `N=c1ccn(Cc2nc3ccccc3n2-c2ccc(F)cc2)cc1` [MRL-1237]?
CC50 (in vitro): > 100 µM; EC50 [1]: 5.3 ± 0.3 µM; EC50 [2]: 3.8 ± 2.5 µM; EC50 [3]: 4.6 ± 1.4 µM

What does the source list for `CCOC(=O)c1ccc(OCCC2CCN(c3ccc(C)nn3)CC2)cc1` [Pirodavir (R77975)]?
CC50 (in vitro): > 100 µM; metabolic stability after oral administration [5]: metabolic instability; EC50 [1]: 10 ± 1 µM; EC50 [2]: 0.56 ± 0.03 µM; EC50 [3]: 1.7 ± 0.1 µM; EC50 ([4]; HeLa): < 2 µM

With `CCOC(=O)c1ccc(OCCCC2CCN(c3ccc(C)nn3)CC2)cc1` [Pirodavir analog (R78206)] as the compound, how does the CC50 (in vitro) read?
Its CC50 is 27 ± 34 µM.

And the “Inhibitory activity against PV1” value [1]?
The value was “exhibited inhibitory activity”.

What about the EC50 [1] of the same compound?
Its EC50 is 0.76 ± 0.18 µM.

What about the EC50 [2] of the same compound?
The EC50 was 0.11 ± 0.1 µM.

What about the EC50 [3] of the same compound?
The EC50 was 0.22 ± 0.19 µM.

What about the EC50 ([4]; HeLa) of the same compound?
The EC50 was under 2 µM.

For `Cc1cc(CCCOc2c(C)cc(-c3noc(C(F)(F)F)n3)cc2C)on1` [Pleconaril], which “benefit of treatment in a persistently infected person” value (PV) is on record?
The value was “no benefit”.

And the “virus excretion in a child persistently infected with PV” value (PV)?
The value was “effective in stopping virus excretion”.

What about the “reduction of infectious virus yield” value (poliovirus 1 Sabin) of the same compound?
Its value is “not able to reduce infectious virus yield”.

And the CC50 (in vitro)?
Its CC50 is 66 ± 6 µM.

And the “Inhibitory activity against PV1” value [1]?
The value was “inactive”.

And the EC50 [1]?
The EC50 was over 100 µM.

What about the EC50 [2] of the same compound?
The EC50 was 0.22 ± 0.15 µM.

And the EC50 [3]?
Its EC50 is 1.1 ± 0.6 µM.

And the EC50 ([4]; HeLa)?
The EC50 was under 2 µM.

Which results are given for `NC(=O)c1ncn([C@@H]2O[C@H](CO)[C@@H](O)[C@H]2O)n1` [Ribavirin]?
CC50 (in vitro): > 100 µM; EC50 [1]: 57 ± 13 µM; EC50 [2]: 55 ± 7 µM; EC50 [3]: 64 ± 4 µM; EC50 [4]: 50 to 60 µM

What does the source list for `CCOC(=O)/C=C/[C@H](C[C@@H]1CCNC1=O)NC(=O)[C@@H](CC(=O)[C@@H](NC(=O)c1cc(C)on1)C(C)C)Cc1ccc(F)cc1` [Rupintrivir]?
decrease of infectious virus production (poliovirus 1 Sabin): 6 log10; reduction of virus progeny formation (poliovirus 1 Sabin): 10–1,000 fold; CC50 (in vitro): > 100 µM; EC50 [1]: 0.022 ± 0.028 µM; EC50 [2]: 0.0052 ± 0.0046 µM; EC50 [3]: 0.041 ± 0.024 µM; cytotoxicity (HeLa cells (ATCC CCL-2)): without any signs of cytotoxicity
